# According to US12692235B2, “Fused ring compound and application thereof” (WUHAN LL SCIENCE AND TECHNOLOGY DEVELOPMENT CO., LTD., priority 2019, dated 2026):
# Biological target: T1, hP2X4 (human purinergic P2X receptor subtype 4) (Homo sapiens, UniProt Q99571)
# T1 sequence (Q99571 1-404 isoform Q99571-2): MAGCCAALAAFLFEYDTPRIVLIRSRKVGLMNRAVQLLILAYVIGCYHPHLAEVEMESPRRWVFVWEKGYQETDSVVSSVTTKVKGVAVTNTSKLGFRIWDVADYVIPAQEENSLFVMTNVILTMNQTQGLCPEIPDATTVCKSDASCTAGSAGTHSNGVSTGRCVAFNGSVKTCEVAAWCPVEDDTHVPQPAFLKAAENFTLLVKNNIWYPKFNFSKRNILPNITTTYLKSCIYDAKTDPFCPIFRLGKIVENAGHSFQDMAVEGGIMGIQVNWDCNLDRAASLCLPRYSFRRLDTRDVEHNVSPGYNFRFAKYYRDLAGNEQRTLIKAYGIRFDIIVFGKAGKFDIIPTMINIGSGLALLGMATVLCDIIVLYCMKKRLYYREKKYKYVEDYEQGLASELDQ
# Details: P2X4 IC50 (nM), HEK293 cells stably expressing hP2X4; agonist BZ-ATP 2.5 μM; FLIPR calcium
# Method: Cells at 400,000 cells/mL were seeded into a 384-well plate (10,000 cells/well) 18-24 h prior to the FLIPR experiment and then incubated overnight in a cell incubator. […] Each well was added with 20 μL of 0.5×Calcium 6 fluorescent dye (Molecular Devices, R8190) and then the cells were subjected to dye-loading incubation at 37° C. for 1.5 h. Each well was added with 10 μL of respective test compound (dissolved in DMSO at a concentration of 10 mM and serially diluted with buffer) or vehicle and the mixture was equilibrated for 30 min at room temperature.
row,IC50,Structure (SMILES)
1,10 to 50 nM,"COc1ccc(Oc2nccc3c(S(N)(=O)=O)cc(NC(=O)Cc4ccccc4Cl)cc23)cc1 [Compound 35, 2-(2-chlorophenyl)-N-(1-(4-methoxyphenoxy)-5-sulfamoylisoquinolin-7-yl)acetamide]"
2,10 to 50 nM,"NS(=O)(=O)c1cc(NC(=O)Cc2ccccc2Cl)cc2cccnc12 [Compound 37, 2-(2-chlorophenyl)-N-(8-sulfamoylquinolin-6-yl)acetamide]"
3,50 to 200 nM,"NS(=O)(=O)c1cc(NC(=O)Cc2ccccc2Cl)cc2ccc(F)nc12 [Compound 38, 2-(2-chlorophenyl)-N-(2-fluoro-8-sulfamoylquinolin-6-yl)acetamide]"
4,200 to 5000 nM,"Nc1ncc2c(S(N)(=O)=O)cc(NC(=O)Cc3ccccc3Cl)cc2n1 [Compound 39, N-(2-amino-5-sulfamoylquinazolin-7-yl)-2-(2-chlorophenyl)acetamide]"
5,50 to 200 nM,"NS(=O)(=O)c1cc(NC(=O)Cc2ccccc2Cl)cc2cncnc12 [Compound 40, 2-(2-chlorophenyl)-N-(8-sulfamoylquinazolin-6-yl)acetamide]"
6,50 to 200 nM,"NS(=O)(=O)c1cc(NC(=O)Cc2ccccc2Cl)cc2ccnnc12 [Compound 41, 2-(2-chlorophenyl)-N-(8-sulfamoylcinnolin-6-yl)acetamide]"
7,10 to 50 nM,"N#Cc1ccc2cc(NC(=O)Cc3ccccc3Cl)cc(S(N)(=O)=O)c2c1 [Compound 42, 2-(2-chlorophenyl)-N-(6-cyano-4-sulfamoylnaphthalen-2-yl)acetamide]"
8,200 to 5000 nM,"NS(=O)(=O)c1cc(NC(=O)Cc2ccccc2Cl)cc2c(=O)[nH]ccc12 [Compound 43, 2-(2-chlorophenyl)-N-(1-oxo-5-sulfamoyl-1,2-dihydroisoquinolin-7-yl)acetamide]"
9,200 to 5000 nM,"N#Cc1nccc2c(S(N)(=O)=O)cc(NC(=O)Cc3ccccc3Cl)cc12 [Compound 44, 2-(2-chlorophenyl)-N-(1-cyano-5-sulfamoylisoquinolin-7-yl)acetamide]"
10,50 to 200 nM,"NS(=O)(=O)c1cc(NC(=O)Cc2ccccc2Cl)cc2ccncc12 [Compound 45, 2-(2-chlorophenyl)-N-(8-sulfamoylisoquinolin-6-yl)acetamide]"
11,200 to 5000 nM,"COC(=O)N1CCCc2c1cc(NC(=O)Cc1ccccc1Cl)cc2S(N)(=O)=O [Compound 46, methyl 7-(2-(2-chlorophenyl)acetamido)-5-sulfamoyl-3,4-dihydroquinoline-1(2H)-carboxylate]"
12,50 to 200 nM,"NS(=O)(=O)c1cc(NC(=O)Cc2ccccc2Cl)cc2c(F)cncc12 [Compound 47, 2-(2-chlorophenyl)-N-(4-fluoro-8-sulfamoylisoquinolin-6-yl)acetamide]"
13,200 to 5000 nM,"NS(=O)(=O)c1cc(NC(=O)Cc2ccccc2Cl)cc2c(Cl)cncc12 [Compound 48, N-(4-chloro-8-sulfamoylisoquinolin-6-yl)-2-(2-chlorophenyl)acetamide]"
14,50 to 200 nM,"NS(=O)(=O)c1cc(NC(=O)Cc2ccccc2Cl)cc2nc(-n3cccn3)ccc12 [Compound 49, N-(2-(1H-pyrazol-1-yl)-5-sulfamoylquinolin-7-yl)-2-(2-chlorophenyl)acetamide]"
15,200 to 5000 nM,"NS(=O)(=O)c1cc(NC(=O)Cc2ccccc2Cl)cc2cc(-n3ccnc3)ncc12 [Compound 50, N-(3-(1H-imidazol-1-yl)-8-sulfamoylisoquinolin-6-yl)-2-(2-chlorophenyl)acetamide]"
16,200 to 5000 nM,"Nc1nccc2c(S(N)(=O)=O)cc(NC(=O)Cc3ccccc3Cl)cc12 [Compound 51, N-(1-amino-5-sulfamoylisoquinolin-7-yl)-2-(2-chlorophenyl)acetamide]"
17,200 to 5000 nM,"NS(=O)(=O)c1cc(NC(=O)Cc2ccccc2Cl)cc2c(Nc3ccc(F)cc3)nccc12 [Compound 52, 2-(2-chlorophenyl)-N-(1-((4-fluorophenyl)amino)-5-sulfamoylisoquinolin-7-yl)acetamide]"

row,IC50,Structure (SMILES)
1,200 to 5000 nM,"COc1nccc2c(S(C)(=N)=O)cc(NC(=O)Cc3ccccc3Cl)cc12 (stereo not drawn) [Compound 53, 2-(2-chlorophenyl)-N-(1-methoxy-5-(S-methylsulfonimidoyl)isoquinolin-7-yl)acetamide]"
2,200 to 5000 nM,"COc1nccc2c(S(N)(=O)=O)cc(NC(=O)Cc3c(Cl)ccc(F)c3F)cc12 [Compound 54, 2-(6-chloro-2,3-difluorophenyl)-N-(1-methoxy-5-sulfamoylisoquinolin-7-yl)acetamide]"
3,50 to 200 nM,Cc1nccc2c(S(N)(=O)=O)cc(NC(=O)Cc3ccccc3Cl)cc12 [Compound 55]
4,50 to 200 nM,NS(=O)(=O)c1cc(NC(=O)Cc2ccccc2Cl)cc2c(CF)nccc12 [Compound 56]
5,50 to 200 nM,NS(=O)(=O)c1cc(NC(=O)Cc2ccccc2Cl)cc2nc(Cl)ccc12 [Compound 57]
6,50 to 200 nM,"COc1ccc2c(S(N)(=O)=O)cc(NC(=O)Cc3ccccc3Cl)cc2n1 [Compound 58, 2-(2-chlorophenyl)-N-(2-methoxy-5-sulfamoylquinolin-7-yl)acetamide]"
7,50 to 200 nM,"NS(=O)(=O)c1cc(NC(=O)Cc2ccccc2Cl)cc2cc(Cl)ncc12 [Compound 59, N-(3-chloro-8-sulfamoylisoquinolin-6-yl)-2-(2-chlorophenyl)acetamide]"
8,50 to 200 nM,"NS(=O)(=O)c1cc(NC(=O)Cc2ccccc2Cl)cc2c(OC(F)(F)F)nccc12 [Compound 60, 2-(2-chlorophenyl)-N-(5-sulfamoyl-1-(trifluoromethoxy)isoquinolin-7-yl)acetamide]"
9,50 to 200 nM,"NS(=O)(=O)c1cc(NC(=O)Cc2ccccc2Cl)cc2c(OCF)nccc12 [Compound 61, 2-(2-chlorophenyl)-N-(1-(fluoromethoxy)-5-sulfamoylisoquinolin-7-yl)acetamide]"
10,200 to 5000 nM,"COc1nccc2c(S(N)(=O)=O)cc(NC(=O)Cc3c(O)cccc3Cl)cc12 [Compound 62, 2-(2-chloro-6-hydroxyphenyl)-N-(1-methoxy-5-sulfamoylisoquinolin-7-yl)acetamide]"
11,200 to 5000 nM,"COc1nccc2c(S(N)(=O)=O)cc(NC(=O)Cc3c(Cl)ccc(F)c3O)cc12 [Compound 63, 2-(6-chloro-3-fluoro-2-hydroxyphenyl)-N-(1-methoxy-5-sulfamoylisoquinolin-7-yl)acetamide]"
12,200 to 5000 nM,"COc1nccc2c(S(N)(=O)=O)cc(NC(=O)Cc3ccccc3C#N)cc12 [Compound 64, 2-(2-cyanophenyl)-N-(1-methoxy-5-sulfamoylisoquinolin-7-yl)acetamide]"
13,10 to 50 nM,"COc1ccc2c(S(N)(=O)=O)cc(NC(=O)Cc3ccccc3Cl)cc2n1 [Compound 65, 2-(2-chlorophenyl)-N-(2-methoxy-5-sulfamoylquinolin-7-yl)acetamide]"
14,50 to 200 nM,"NS(=O)(=O)c1cc(NC(=O)Cc2ccccc2Cl)cc2nc(OCCO)ccc12 [Compound 66, 2-(2-chlorophenyl)-N-(2-(2-hydroxyethoxy)-5-sulfamoylquinolin-7-yl)acetamide]"
15,200 to 5000 nM,"NS(=O)(=O)c1cc(NC(=O)Cc2ccccc2Cl)cc2nc(N3CCCCC3)ccc12 [Compound 67, 2-(2-chlorophenyl)-N-(2-(piperidin-1-yl)-5-sulfamoylquinolin-7-yl)acetamide]"
16,50 to 200 nM,"NS(=O)(=O)c1cc(NC(=O)Cc2ccccc2Cl)cc2nc(N3CCOCC3)ccc12 [Compound 68, 2-(2-chlorophenyl)-N-(2-morpholino-5-sulfamoylquinolin-7-yl)acetamide]"
